Literature values as cited in patent US20090239783A1, “SYNERGISTIC EFFECTS OF COMBINED ADMINISTRATION OF MIRTAZAPINE AND A STIMULANT COMPOUND” (priority 2004, published 2009).

Assays:
histamine (H1) = histamine (H1) (Homo sapiens, UniProt P35367)
histamine (H1), sequence (P35367 whole entry): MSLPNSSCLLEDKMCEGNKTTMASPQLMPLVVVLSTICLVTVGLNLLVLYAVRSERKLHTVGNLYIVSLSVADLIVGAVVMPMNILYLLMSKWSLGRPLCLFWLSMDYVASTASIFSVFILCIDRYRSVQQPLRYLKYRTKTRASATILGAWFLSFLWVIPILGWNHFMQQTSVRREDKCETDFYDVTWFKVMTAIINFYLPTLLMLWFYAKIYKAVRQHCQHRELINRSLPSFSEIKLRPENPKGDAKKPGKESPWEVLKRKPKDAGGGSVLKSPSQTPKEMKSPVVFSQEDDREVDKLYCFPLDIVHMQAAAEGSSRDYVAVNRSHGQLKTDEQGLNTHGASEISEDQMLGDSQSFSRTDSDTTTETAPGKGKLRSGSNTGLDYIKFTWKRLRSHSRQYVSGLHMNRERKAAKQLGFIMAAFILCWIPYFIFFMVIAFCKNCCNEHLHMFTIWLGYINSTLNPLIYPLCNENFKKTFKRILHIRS

- histamine (H1) antagonist properties (histamine (H1)): very weak
- solubility in water: slightly soluble
- affinity for 5-HT1 receptors (5-HT1 receptors): weak
Structure (SMILES): CN1CCN2c3ncccc3Cc3ccccc3C2C1 (stereo not shown) [Mirtazapine, 1,2,3,4,10,14b-hexahydro-2-methylpyrazino [2,1-a] pyrido [2,3-c] benzazepine]
- muscarinic anticholinergic properties (muscarinic): very weak
